Converted amounts (≈) assume the structure as drawn. Where two headings read alike, the source gives them in different places.
Legend:
[1] = tested on: glycogen synthase kinase-3 (GSK-3); design: method as in earlier work; conditions: ref previous screening of potential GSK-3 inhibitors among the Leishbox; cited from earlier work
[2] = Hepatotoxicity in HepG2 cells (MTS); format: cell-based; conditions: human, read-out: CC50 against HepG2 cells
Method: HepG2 cells were seeded at 2 × 10^4 cells/mL in DMEM, the plates were incubated for 24 h (5% CO2, 37 °C) and the compounds and doxorubicin (used as a positive control) were added in serial dilutions. After 72 h incubation, 15 μL of MTS reagent (CellTiter96) was added to each well, and the plates were incubated for 4 h then read using a microplate absorbance reader at 490 nm. Growth inhibition was expressed as a percentage of the absorbance of the negative control wells.

[3] = tested on: L. infantum::tdTomato; format: in vivo, mouse; conditions: for parasitemia reduction in the spleen / parasitemia reduction in the liver: 20 dpi, vs untreated control
Method: BALB/c mice (male, 6 to 8 weeks old, 18 to 20 g) were inoculated intravenously (tail vein) with 2 × 10^7 late-log-phase L. infantum promastigotes from Li::tdTomato lines, and randomly assigned into one of the four treatment groups (six mice per group). After 7 days of infection, […] was administered intraperitoneally in a single dose 500 mg/kg/day meglumine antimoniate (Glucantime, Sanofi Medley), both groups treated with 2 received two daily intraperitoneal injections totaling either 50 mg/kg/day or 100 mg/kg/day of 2, and the control group was administered the vehicle solution. For the intraperitoneal injection, 2 was formulated as follows: a stock solution of 2 in DMSO (100 mg/mL) was prepared daily, and a solution of 70% PBS1X, 20% PEG 400 (Polyethylene Glycol 400, Sigma-Aldrich), 0.16% Tween 80 and 10% of 2 (from the stock solution) was prepared. The control group was also administered this solution, replacing 2 with 10% DMSO. All mice were euthanized 3 days after the end of the treatment, and the liver and spleen of each animal were collected.
The number of viable parasites in each organ was determined using a quantitative limiting dilution assay. Briefly, the organs were macerated using an Ultra-Turrax disperser (IKA-Werke GmbH & Co. KG., Staufen, Germany), and a tissue homogenate was obtained with 1 mL of M199 medium. Each tissue homogenate was sequentially diluted (10-fold) in 96-well flat-bottom microtiter black plates and incubated at 26 °C for 10 days. The wells containing motile promastigotes were identified with an inverted microscope (Axiovert 25, Zeiss), and the parasite burden was determined from the highest dilution at which promastigotes had grown after 10 days of incubation.

[4] = tested on: L. infantum promastigotes; experiment: Flow cytometric cell cycle analysis (PI); format: cell-based, Leishmania infantum; conditions: 24 h, 0.5x, 1x, 2x IC50, PI
Method: Then, the cells were collected, washed twice with 1 × PBS, and fixed in 70% ethanol at 4 °C for 24 h. The fixed parasites were then washed with 1 × PBS and the pellet was treated with 500 μL of RNase A (20 mg/mL) and incubated at 37 °C for 1 h. Subsequently, the parasites were stained with 10 μg/mL propidium iodide (PI) in the dark for 20 min. Cell cycle distribution, determining the percentage of cells in G0, G1, S, and G2/M phases, was analyzed using an Accuri C5 BD flow cytometer. The histograms presented are representative of results obtained from three independent experiments.

[5] = tested on: L. braziliensis DHODH; experiment: DHODH inhibition assay (DCIP); format: biochemical, Leishmania braziliensis; conditions: 100 μM
Method: The inhibition assay was conducted under the following conditions: 50 mM Tris (pH 8.15), 150 mM KCl, 50 μM DHO, 60 μM DCIP, and 0.1% Triton X-100. 2 was assayed in triplicate at a concentration of 100 μM, using 5% (v/v) DMSO to prepare stock solutions. The reaction was initiated by adding the enzyme, reaching a final enzyme concentration of 165 nM. Enzymatic activity was then measured for 60 s at 610 nm using a microplate reader (SpectraMax Plus 384, Molecular Devices, San Jose, CA, USA) at 25 °C. The uninhibited reaction, containing 5% (v/v) DMSO, was used as a positive control (100% activity).

[6] = tested on: L. infantum promastigotes; experiment: Antileishmanial activity against promastigotes (MTS); format: cell-based; conditions: Leishmania infantum, 72 h
Method: L. infantum promastigotes (MHOM/MA/67/ITMAP-263) were cultured in complete Schneider medium (SigmaAldrich, St. Louis, MO, USA), which consisted of Schneider medium plus 10% heat-inactivated fetal bovine serum (FBS, SigmaAldrich) pH 7.4, at 24 °C. The L. infantum promastigotes were plated at a concentration of 10^5 parasites/mL, and 2 was added at concentrations of 64, 32, 16, 8, 4, 2, 1, 0.5, 0.25, and 0.125 μM. The cells were cultured for 72 h and, after the incubation time, cell proliferation was measured by colorimetric MTS assay. The cells in each well were stained with 20 μL of MTS (Promega, G3580) for 3 h, and the OD at 490 nm was determined with a microplate reader. All experiments were independently repeated at least three times.

[7] = Kinetic solubility; format: physicochemical; conditions: PBS, 25 °C, kinetic from dmso stock
Method: The analysis was performed using LC-MS/MS (liquid chromatography-tandem mass spectrometry). The LC-MS/MS system used consisted of a Prominence UFLC (Shimadzu Corporation, Kyoto, Japan) chromatography system, interfaced with a LCMS-8045 triple quadrupole mass spectrometer (Shimadzu Corporation, Kyoto, Japan) equipped with an electrospray ionization source (ESI).
PBS pH 7.4 or 2.0 (final concentration of 250 μM) was added to each well of the plates, and the DMSO concentration was kept lower than 2.5%. The plates were sealed and shaken for 24 h (200 rpm/25 °C). The precipitates on the incubation plate were removed by centrifugation (15 min/3000 rpm/25 °C), and the supernatant fractions were quantified by LC-MS/MS. An intermediate standard solution diluted at 0.5 mM in acetonitrile:water (1:1) was prepared from a 10 mM standard solution. A calibration curve was prepared for each of the test compounds and controls by diluting several times the intermediate standard solution to reach the desired concentrations of 50, 40, 20, 2, and 1 μM. The resulting equation for the calibration curve (y = mx + b) was used to calculate the experimental concentration values for the compounds. The chromatogram for analysis was achieved on a Supelco Ascentis express C18 column (3 cm x 2.1 mm, […]), using water +0.05% formic acid (A) and acetonitrile +0.05% formic acid (B) as mobile phases. […]

Compound	GSK-3 inhibition [1]	CC50 at 72 h [2] [µM]	parasitemia reduction in the spleen ([3]; 50 mg/kg/day i.p., 10 days) [%]	parasitemia reduction in the liver ([3]; 50 mg/kg/day i.p., 10 days, not significant) [%]	parasitemia reduction in the liver ([3]; 100 mg/kg/day i.p., 10 days) [%]	parasitemia reduction in the spleen ([3]; 100 mg/kg/day i.p., 10 days) [%]	parasitemia reduction ([3]; 100 mg/kg/day, 7-day treatment (as printed in the conclusion))	death among treated mice ([3]; 50 and 100 mg/kg/day i.p., 10 days)	external signs of acute toxicity during and after treatment ([3]; 50 and 100 mg/kg/day i.p., 10 days, infected BALB/c mice)	effect on cell cycle progression [4]	inhibition of DHODH [5]	IC50 [6] [µM]	solubility kinetic at 24 h ([7]; aqueous buffer, pH 2.0) [µM]	solubility kinetic at 24 h ([7]; pH 7.4, aqueous buffer) [µM]
O=C(c1ccc(O)c(Cl)c1)N1CCN(c2cnccn2)CC1 [Compound 1, (3-Chloro-4-hydroxyphenyl)(4-(pyrazin-2-yl)piperazin-1-yl)methanone]	did not inhibit	–	–	–	–	–	–	–	–	–	–	–	–	–
O=C(c1ccc(O)cc1)N1CCN(c2cnccn2)CC1 [Compound 2, (4-Hydroxyphenyl)(4-(pyrazin-2-yl)piperazin-1-yl)methanone]	–	> 64	80.0	44.4	90.0	91.1	over 90%	No death	No external signs of acute toxicity	G0/G1 phase cell cycle arrest	less than 25%	7.93	125 (≈ 35.6 µg/mL)	> 153

Source: PMC12384620, “Hit-to-Lead Studies of Pyrazinylpiperazines against Visceral Leishmaniasis: Pharmacokinetic Profile and In Vivo Efficacy of Potent Compounds against Leishmania infantum” (ACS Pharmacology & Translational Science, 2025)
